Results published in article PMC4476799, “Englerin A Agonizes the TRPC4/C5 Cation Channels to Inhibit Tumor Cell Line Proliferation” (PLoS ONE, 2015).
Like-named read-outs stand apart in the source and are kept apart here.

Test system: cancer cell lines from the cancer cell line encyclopedia (CCLE)
Test: Cell line profiling (CLiP) proliferation experiment
Type: cell-based
Conditions: for IC50: read-out: Crossing Point; for EC50: read-out: Inflection Point
Description: Compound profiling experiment and data analysis was performed as previously described. Data was imported and plotted using the Tibco Spotfire DXP application. Lines were categorized as sensitive, intermediate and refractory as follows: Amax<-40 & Inflection Point <2 ~ Sensitive, Amax>-20 & Inflection Point >10 ~ Refractory, all else were called Intermediate. Cancer Cell line HG-U133 Plus 2 data was processed and normalized as described. […] Five sets of refractory cell lines were generated from the pool of refractory cell lines trying to match the lineage composition of the set of sensitive cell lines. The limma package was used as previously described to perform the statistical comparison.

[1] = HT115, cell line HT115, large_intestine
[2] = Homo sapiens, 8-MG-BA, cell line 8-MG-BA, central_nervous_system, astrocytoma_Grade_IV
[3] = Homo sapiens, 769-P, cell line 769-P, kidney, clear_cell_renal_cell_carcinoma
[4] = Homo sapiens, A101D, A101D cells
[5] = Homo sapiens, A101D, cell line A101D, skin, NS
[6] = Homo sapiens, A204, cell line A-204, soft_tissue, NS
[7] = Homo sapiens, A2780, cell line A2780, ovary, adenocarcinoma
[8] = Homo sapiens, ABC-1, ABC-1 cells
[9] = Homo sapiens, ABC-1, cell line ABC-1, lung, non_small_cell_carcinoma
[10] = Homo sapiens, AMO1, cell line AMO-1, haematopoietic_and_lymphoid_tissue, plasma_cell_myeloma
[11] = Homo sapiens, BFTC-909, cell line BFTC-909, kidney, NS
[12] = Homo sapiens, BL-41, cell line BL-41, haematopoietic_and_lymphoid_tissue, Burkitt_lymphoma
[13] = Homo sapiens, BV-173, cell line BV-173, haematopoietic_and_lymphoid_tissue, blast_phase_chronic_myeloid_leukaemia
[14] = Homo sapiens, CAKI-1, cell line Caki-1, kidney, clear_cell_renal_cell_carcinoma
[15] = Homo sapiens, CAL-54, CAL-54, kidney, renal_cell_carcinoma
[16] = Homo sapiens, CAL-54, CAL-54 cells
[17] = Homo sapiens, CAL-85-1, CAL-85-1, breast, NS
[18] = Homo sapiens, CAL-85-1, CAL-85-1 cells
[19] = Homo sapiens, CAL-120, cell line CAL-120, breast, NS
[20] = Homo sapiens, CAPAN-1, Capan-1, pancreas, ductal_carcinoma
[21] = Homo sapiens, CFPAC-1, CFPAC-1, pancreas, ductal_carcinoma

Question: Which IC50 (HEC-50B, cell line HEC-50B) does the source give for `CC(C)[C@@]12C[C@@H](O)[C@@](C)(O1)[C@@H]1CC[C@@H](C)[C@H]1[C@@H]2OC(=O)/C=C/c1ccccc1` [Englerin B] here?
Answer: > 30 µM

Question: What about the IC50 (HEC-251, cell line HEC-251, endometrium) of the same molecule?
Answer: > 30 µM

Question: What about the IC50 (HEC-251, cell line HEC-251) of the same molecule?
Answer: > 30 µM

Question: What about the IC50 (HEY A8, cell line Hey-A8, ovary) of the same molecule?
Answer: > 30 µM

Question: What about the IC50 (HEY A8, cell line Hey-A8) of the same molecule?
Answer: > 30 µM

Question: And the IC50 [1]?
Answer: 19.2 µM

Question: And the EC50 [1]?
Answer: 12.3 µM

Question: What about the IC50 [2] of the same molecule?
Answer: 26.5 µM

Question: And the EC50 [2]?
Answer: 15.8 µM

Question: And the IC50 (Homo sapiens, 22Rv1, cell line 22Rv1, prostate, NS)?
Answer: 27.2 µM

Question: And the IC50 (Homo sapiens, 769-P, 769-P (kidney))?
Answer: > 30 µM

Question: And the IC50 [3]?
Answer: > 30 µM

Question: What about the EC50 [3] of the same molecule?
Answer: 20.5 µM

Question: And the IC50 (Homo sapiens, 786-0, cell line 786-O, kidney, clear_cell_renal_cell_carcinoma)?
Answer: > 30 µM

Question: And the IC50 (Homo sapiens, 786-0, cell line 786-O)?
Answer: > 30 µM

Question: And the IC50 (Homo sapiens, 1321-N1, cell line 1321N1 (central_nervous_system, astrocytoma))?
Answer: > 30 µM

Question: What about the IC50 (Homo sapiens, 1321-N1, cell line 1321N1, central_nervous_system, astrocytoma) of the same molecule?
Answer: > 30 µM

Question: What about the IC50 (Homo sapiens, 8305C, 8305C (thyroid)) of the same molecule?
Answer: > 30 µM

Question: What about the IC50 (Homo sapiens, 8305C, cell line 8305C, thyroid, anaplastic_carcinoma) of the same molecule?
Answer: > 30 µM

Question: And the IC50 [4]?
Answer: > 30 µM

Question: And the EC50 [4]?
Answer: 19.2 µM

Question: What about the IC50 [5] of the same molecule?
Answer: > 30 µM

Question: And the EC50 [5]?
Answer: 19.2 µM

Question: And the IC50 (Homo sapiens, A 172, cell line A172, central_nervous_system, astrocytoma_Grade_IV)?
Answer: > 30 µM

Question: And the IC50 (Homo sapiens, A 172, cell line A172)?
Answer: > 30 µM

Question: And the IC50 (Homo sapiens, A204, cell line A-204)?
Answer: > 30 µM

Question: What about the IC50 [6] of the same molecule?
Answer: > 30 µM

Question: What about the EC50 [6] of the same molecule?
Answer: 17.4 µM

Question: What about the IC50 (Homo sapiens, A253, cell line A-253, salivary_gland, mucoepidermoid_carcinoma) of the same molecule?
Answer: 14.7 µM

Question: What about the IC50 (Homo sapiens, A498, cell line A-498, kidney, renal_cell_carcinoma) of the same molecule?
Answer: 12.5 µM

Question: And the IC50 (Homo sapiens, A549, cell line A549, lung, adenocarcinoma)?
Answer: 23.2 µM

Question: And the IC50 (Homo sapiens, A673, A-673 cells)?
Answer: > 30 µM

Question: And the IC50 (Homo sapiens, A673, cell line A-673, bone, NS)?
Answer: > 30 µM

Question: What about the IC50 (Homo sapiens, A2058, cell line A2058, skin, NS) of the same molecule?
Answer: 18.5 µM

Question: And the EC50 (Homo sapiens, A2780, A2780 cells)?
Answer: 12.1 µM

Question: And the IC50 [7]?
Answer: 14.9 µM

Question: What about the EC50 [7] of the same molecule?
Answer: 12.1 µM

Question: And the IC50 (Homo sapiens, A-375, A-375 cells)?
Answer: > 30 µM

Question: And the IC50 (Homo sapiens, A-375, cell line A-375, skin, NS)?
Answer: > 30 µM

Question: And the IC50 [8]?
Answer: > 30 µM

Question: And the EC50 [8]?
Answer: 23.7 µM

Question: What about the IC50 [9] of the same molecule?
Answer: > 30 µM

Question: And the EC50 [9]?
Answer: 23.7 µM

Question: And the IC50 (Homo sapiens, ACHN, ACHN cells)?
Answer: > 30 µM

Question: What about the IC50 (Homo sapiens, ACHN, cell line ACHN, kidney, renal_cell_carcinoma) of the same molecule?
Answer: > 30 µM

Question: And the EC50 (Homo sapiens, AMO1, AMO-1 cells)?
Answer: 12.2 µM

Question: And the IC50 [10]?
Answer: 13.2 µM

Question: What about the EC50 [10] of the same molecule?
Answer: 12.2 µM

Question: What about the IC50 (Homo sapiens, AN3-CA, cell line AN3 CA, endometrium, adenocarcinoma) of the same molecule?
Answer: 21.1 µM

Question: What about the IC50 (Homo sapiens, AN3-CA, cell line AN3 CA) of the same molecule?
Answer: 21.1 µM

Question: And the IC50 (Homo sapiens, AU565, cell line AU565, breast, NS)?
Answer: 20.5 µM

Question: And the IC50 [11]?
Answer: > 30 µM

Question: What about the EC50 [11] of the same molecule?
Answer: 0.1 µM

Question: What about the IC50 (Homo sapiens, BFTC-909, cell line BFTC-909) of the same molecule?
Answer: > 30 µM

Question: What about the EC50 (Homo sapiens, BL-41, BL-41 cells) of the same molecule?
Answer: 16.6 µM

Question: What about the IC50 [12] of the same molecule?
Answer: 17.2 µM

Question: What about the EC50 [12] of the same molecule?
Answer: 16.6 µM

Question: And the IC50 (Homo sapiens, BT-20, BT-20 cells)?
Answer: > 30 µM

Question: And the IC50 (Homo sapiens, BT-20, cell line BT-20, breast, ductal_carcinoma)?
Answer: > 30 µM

Question: And the IC50 (Homo sapiens, BT-549, cell line BT-549, breast, ductal_carcinoma)?
Answer: 19.5 µM

Question: What about the EC50 (Homo sapiens, BV-173, BV-173 cells) of the same molecule?
Answer: 12.5 µM

Question: And the IC50 [13]?
Answer: 12.8 µM

Question: And the EC50 [13]?
Answer: 12.5 µM

Question: And the IC50 (Homo sapiens, BXPC-3, cell line BxPC-3, pancreas, ductal_carcinoma)?
Answer: 26.1 µM

Question: And the IC50 (Homo sapiens, C32, C32 cells)?
Answer: > 30 µM

Question: What about the IC50 (Homo sapiens, CAKI-1, Caki-1 (kidney)) of the same molecule?
Answer: > 30 µM

Question: What about the IC50 [14] of the same molecule?
Answer: > 30 µM

Question: What about the EC50 [14] of the same molecule?
Answer: 13.3 µM

Question: And the IC50 (Homo sapiens, CAKI-2, Caki-2 (kidney))?
Answer: > 30 µM

Question: And the IC50 (Homo sapiens, CAKI-2, cell line Caki-2, kidney, clear_cell_renal_cell_carcinoma)?
Answer: > 30 µM

Question: What about the IC50 (Homo sapiens, CAL-51, CAL-51 cells) of the same molecule?
Answer: > 30 µM

Question: What about the IC50 (Homo sapiens, CAL-51, cell line CAL-51, breast, NS) of the same molecule?
Answer: > 30 µM

Question: And the IC50 [15]?
Answer: > 30 µM

Question: And the EC50 [15]?
Answer: 15.7 µM

Question: What about the IC50 [16] of the same molecule?
Answer: > 30 µM

Question: And the EC50 [16]?
Answer: 15.7 µM

Question: What about the IC50 [17] of the same molecule?
Answer: > 30 µM

Question: What about the EC50 [17] of the same molecule?
Answer: 27.8 µM

Question: And the IC50 [18]?
Answer: > 30 µM

Question: And the EC50 [18]?
Answer: 27.8 µM

Question: What about the EC50 (Homo sapiens, CAL-120, CAL-120 cells) of the same molecule?
Answer: 11.6 µM

Question: What about the IC50 [19] of the same molecule?
Answer: 22.3 µM

Question: And the EC50 [19]?
Answer: 11.6 µM

Question: And the IC50 (Homo sapiens, CAMA-1, CAMA-1 (breast))?
Answer: > 30 µM

Question: What about the IC50 (Homo sapiens, CAMA-1, CAMA-1, breast, NS) of the same molecule?
Answer: > 30 µM

Question: And the IC50 (Homo sapiens, CAPAN-1, Capan-1 (pancreas))?
Answer: > 30 µM

Question: What about the IC50 [20] of the same molecule?
Answer: > 30 µM

Question: What about the EC50 [20] of the same molecule?
Answer: 3.35 µM

Question: And the IC50 (Homo sapiens, CCRF-CEM, CCRF-CEM cells)?
Answer: > 30 µM

Question: And the IC50 (Homo sapiens, CCRF-CEM, haematopoietic_and_lymphoid_tissue, acute_lymphoblastic_T_cell_leukaemia)?
Answer: > 30 µM

Question: What about the IC50 [21] of the same molecule?
Answer: 29.7 µM

Question: What about the EC50 [21] of the same molecule?
Answer: 12.7 µM
